Assay results taken from US20210115018A1, “PIPERIDINE COMPOUNDS AS COVALENT MENIN INHIBITORS” (THE REGENTS OF THE UNIVERSITY OF MICHIGAN, priority 2018, published 2021).
pIC50: −log10 of the molar value.

Key:
MV4-11 = assay: 7-day proliferation assay (WST-8), cell growth inhibition; assay type: cell-based; conditions: Homo sapiens, MV4-11, 168 h, MV4-11 cells, 7 days
Procedure, shortened: (§1)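 Cells seeded at 2,000-3,000/well were exposed to serially diluted compound for 7 days at 37° C., 5% CO2. Viability was read by WST-8 absorbance at 450 nm after 1-2 h color development; readings normalized to DMSO-treated cells, IC50 by four-parameter nonlinear regression.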

MOLM13 = assay: as above; assay type: cell-based; conditions: Homo sapiens, MOLM-13, 168 h, MOLM13 cells, 7 days
Procedure, shortened: as §1

menin protein = target: T1, menin protein (Homo sapiens, UniProt O00255); assay: Fluorescence polarization (FP) competitive binding assay, menin binding affinity; conditions: FP competition with FAM-MM2 probe 2 nM, menin 4 nM, 30 minutes room temperature
T1 sequence (O00255 1-610): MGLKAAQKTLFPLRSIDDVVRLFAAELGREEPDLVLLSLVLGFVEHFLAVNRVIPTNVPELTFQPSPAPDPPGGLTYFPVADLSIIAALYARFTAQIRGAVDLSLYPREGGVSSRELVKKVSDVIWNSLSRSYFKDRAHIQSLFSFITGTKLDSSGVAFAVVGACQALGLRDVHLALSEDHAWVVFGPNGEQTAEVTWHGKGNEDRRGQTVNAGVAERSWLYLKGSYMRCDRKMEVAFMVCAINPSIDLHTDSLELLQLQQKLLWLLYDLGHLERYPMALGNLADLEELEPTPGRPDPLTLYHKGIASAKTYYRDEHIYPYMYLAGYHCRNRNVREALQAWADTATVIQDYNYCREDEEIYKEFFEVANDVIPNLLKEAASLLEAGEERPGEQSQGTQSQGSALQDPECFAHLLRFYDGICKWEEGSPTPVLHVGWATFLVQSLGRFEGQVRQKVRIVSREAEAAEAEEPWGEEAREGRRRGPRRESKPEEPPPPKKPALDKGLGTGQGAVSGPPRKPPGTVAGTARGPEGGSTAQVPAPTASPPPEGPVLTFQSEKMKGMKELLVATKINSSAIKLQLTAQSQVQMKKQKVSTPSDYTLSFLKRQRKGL
Procedure, shortened: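 Competitive FP with FAM-labeled MLL1 peptide probe FAM-MM2 (2 nM) and menin (4 nM) in PBS, 0.02% bovine γ-globulin, 4% DMSO, 0.01% Triton X-100. After 30 min at room temperature, mP read at 485/530 nm; IC50 from nonlinear regression against probe-only and complex-only controls.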

SMILES | IC50 (MV4-11) [nM] | IC50 (MOLM13) [nM] | pIC50 (menin protein)
C=CC(=O)N1CCCC[C@@H](S(=O)(=O)c2ccc(N3CC(CN4CCC([C@@](CN5CCC5)(c5cccc(F)c5)[C@H]5CCC[C@@H]5NC(=O)OC)CC4)(OC)C3)c(F)c2)C1 [compound 227] | < 50 | < 50 | 8.15
CC#CC(=O)N1CCCC[C@@H](S(=O)(=O)c2ccc(N3CC(F)(CN4CCC([C@@](CN5CCC5)(c5cccc(F)c5)[C@H]5CCC[C@@H]5NC(=O)OC)CC4)C3)cc2)C1 [compound 231] | < 500 | < 500 | 8.40
C=CC(=O)N1CCCC[C@@H](S(=O)(=O)c2ccc(N3CC(O)(CN4CCC([C@@](CN5CCC5)(c5cccc(F)c5)[C@H]5CCC[C@@H]5NC(=O)OC)CC4)C3)c(F)c2)C1 [compound 229] | < 100 | < 500 | 8.10
CC#CC(=O)N1CCCC[C@@H](S(=O)(=O)c2ccc(N3CC(CN4CCC([C@@](CN5CCC5)(c5cccc(F)c5)[C@H]5CCC[C@@H]5NC(=O)OC)CC4)(OC)C3)c(F)c2)C1 [compound 232] | < 100 | < 500 | 8.52
C=CC(=O)N1CCCC[C@@H](S(=O)(=O)c2ccc(N3CC(O)(CN4CCC([C@@](CN5CCC5)(c5cccc(F)c5)[C@H]5CCC[C@@H]5NC(=O)OC)CC4)C3)cc2)C1 [compound 228] | < 50 | < 500 | 8.15
C=CC(=O)N1CCCC[C@@H](S(=O)(=O)c2ccc(N3CC(CN4CCC([C@@](CN5CCC5)(c5cccc(F)c5)[C@H]5CCC[C@@H]5NC(=O)OC)CC4)C3)c(F)c2)C1 [compound 223] | < 50 | < 50 | 8.40
C/C=C/S(=O)(=O)N1CCCC[C@@H](S(=O)(=O)c2ccc(N3CC(F)(CN4CCC([C@@](CN5CCC5)(c5cccc(F)c5)[C@H]5CCC[C@@H]5NC(=O)OC)CC4)C3)cc2)C1 [compound 233] | < 100 | < 500 | 8.52
C=CC(=O)N1CCCC[C@@H](S(=O)(=O)c2ccc(N3CC(CN4CCC([C@@](CN5CCC5)(c5cccc(F)c5)[C@H]5CCC[C@@H]5NC(=O)OC)CC4)(OC)C3)cc2)C1 [compound 226] | < 50 | < 50 | 8.52
C=CC(=O)N1CCCC[C@@H](S(=O)(=O)c2ccc(N3CC(F)(CN4CCC([C@@](CN5CCC5)(c5cccc(F)c5)[C@H]5CCC[C@@H]5NC(=O)OC)CC4)C3)cc2)C1 [compound 221] | < 50 | < 50 | 8.30
COC(=O)N[C@H]1CCC[C@@H]1[C@](CN1CCC1)(c1cccc(F)c1)C1CCN(CC2CN(c3ccc(S(=O)(=O)C4CN(C(=O)/C=C/CN(C)C)C4)cc3)C2)CC1 [Cpd. No. 5, methyl ((1S,2R)-2-((S)-2-(azetidin-1-yl)-1-(1-((1-(4-((1-((E)-4-(dimethylamino)but-2-enoyl)azetidin-3-yl)sulfonyl)phenyl)azetidin-3-yl)methyl)piperidin-4-yl)-1-(3-fluorophenyl)ethyl)cyclopentyl)carbamate] | < 10 | < 50 | 8.52
C=CC(=O)N1CCOC[C@@H](S(=O)(=O)c2ccc(N3CC(F)(CN4CCC([C@@](CN5CCC5)(c5cccc(F)c5)[C@H]5CCC[C@@H]5NC(=O)OC)CC4)C3)c(F)c2)C1 [compound 216] | < 50 | < 100 | 8.70
C=CC(=O)N1CCCC[C@@H](S(=O)(=O)c2ccc(N3CC(CN4CCC([C@@](CN5CCC5)(c5cccc(F)c5)[C@H]5CCC[C@@H]5NC(=O)OC)CC4)C3)cc2)C1 [compound 220] | < 10 | < 50 | 8.30
C=CC(=O)N1CCCC[C@@H](S(=O)(=O)c2ccc(N3CC(F)(CN4CCC([C@@](CN5CCC5)(c5cccc(F)c5)[C@H]5CCC[C@@H]5NC(=O)OC)CC4)C3)c(F)c2)C1 [compound 224] | < 50 | < 50 | 8.40
COC(=O)N[C@H]1CCC[C@@H]1[C@](CN1CCC1)(c1cccc(F)c1)C1CCN(CC2CN(c3ccc(S(=O)(=O)C4CN(C(=O)/C=C/CN5CCCCC5)C4)cc3)C2)CC1 [Cpd. No. 24, methyl ((1S,2R)-2-((S)-2-(azetidin-1-yl)-1-(3-fluorophenyl)-1-(1-((1-(4-((1-((E)-4-(piperidin-1-yl)but-2-enoyl)azetidin-3-yl)sulfonyl)phenyl)azetidin-3-yl)methyl)piperidin-4-yl)ethyl)cyclopentyl)carbamate] | < 10 | < 10 | 8.52

More lines, now with the values ahead:

IC50 (MV4-11) [nM] | IC50 (MOLM13) [nM] | pIC50 (menin protein) | SMILES
< 10 | < 100 | 8.70 | COC(=O)N[C@H]1CCC[C@@H]1[C@](CN1CCC1)(c1cccc(F)c1)C1CCN(CC2CN(c3ccc(S(=O)(=O)C4CN(C(=O)/C=C/CN5CCCC5)C4)cc3)C2)CC1 [Cpd. No. 20, methyl ((1S,2R)-2-((S)-2-(azetidin-1-yl)-1-(3-fluorophenyl)-1-(1-((1-(4-((1-((E)-4-(pyrrolidin-1-yl)but-2-enoyl)azetidin-3-yl)sulfonyl)phenyl)azetidin-3-yl)methyl)piperidin-4-yl)ethyl)cyclopentyl)carbamate]
< 10 | < 10 | 8.70 | C=CC(=O)N1CCC[C@@H](S(=O)(=O)c2ccc(N3CC(CN4CCC([C@@](CN5CCC5)(c5cccc(F)c5)[C@H]5CCC[C@@H]5NC(=O)OC)CC4)C3)c(F)c2)C1 [compound 219]
< 10 | < 100 | 8.70 | C=C(CN1CCCCC1)C(=O)N1CC(S(=O)(=O)c2ccc(N3CC(F)(CN4CCC([C@@](CN5CCC5)(c5cccc(F)c5)[C@H]5CCC[C@@H]5NC(=O)OC)CC4)C3)cc2)C1 [Cpd. No. 18, methyl ((1S,2R)-2-((S)-2-(azetidin-1-yl)-1-(1-((3-fluoro-1-(4-((1-(2-(piperidin-1-ylmethyl)acryloyl)azetidin-3-yl)sulfonyl)phenyl)azetidin-3-yl)methyl)piperidin-4-yl)-1-(3-fluorophenyl)ethyl)cyclopentyl)carbamate]
< 10 | < 10 | 9.00 | C=CC(=O)N1CCCCC(S(=O)(=O)c2ccc(N3CC(F)(CN4CCC([C@@](CN5CCC5)(c5cccc(F)c5)[C@H]5CCC[C@@H]5NC(=O)OC)CC4)C3)cc2)C1 (stereo partly drawn) [compound 215]
< 10 | < 10 | 8.70 | COC(=O)N[C@H]1CCC[C@@H]1[C@](CNC(C)=O)(c1cccc(F)c1)C1CCN(CC2CN(c3ccc(S(=O)(=O)C4CN(C(=O)/C=C/CN5CCCCC5)C4)c(CN4CC(F)C4)c3)C2)CC1 [compound 131]
< 10 | < 100 | 9.00 | C=C(CN(C)C)C(=O)N1CC(S(=O)(=O)c2ccc(N3CC(F)(CN4CCC([C@@](CN5CCC5)(c5cccc(F)c5)[C@H]5CCC[C@@H]5NC(=O)OC)CC4)C3)cc2)C1 [Cpd. No. 13, methyl ((1S,2R)-2-((S)-2-(azetidin-1-yl)-1-(1-((1-(4-((1-(2-((dimethylamino)methyl)acryloyl)azetidin-3-yl)sulfonyl)phenyl)-3-fluoroazetidin-3-yl)methyl)piperidin-4-yl)-1-(3-fluorophenyl)ethyl)cyclopentyl)carbamate]
< 10 | < 100 | 9.00 | C=C(CN1CCCC1)C(=O)N1CC(S(=O)(=O)c2ccc(N3CC(CN4CCC([C@@](CN5CCC5)(c5cccc(F)c5)[C@H]5CCC[C@@H]5NC(=O)OC)CC4)C3)cc2)C1 [Cpd. No. 19, methyl ((1S,2R)-2-((S)-2-(azetidin-1-yl)-1-(3-fluorophenyl)-1-(1-((1-(4-((1-(2-(pyrrolidin-1-ylmethyl)acryloyl)azetidin-3-yl)sulfonyl)phenyl)azetidin-3-yl)methyl)piperidin-4-yl)ethyl)cyclopentyl)carbamate]
